The numbers were not newly measured in patent US20120316143A1, “Ophthalmic composition” (priority 2009, published 2012), which cites them from elsewhere.

The subject of series [1] is rabbits made ocularly hypertensive with dexamethasone.
The test system of series [2] is patients. To be noted: applied topically as a 1% suspension.
Series [3] has as its system normal subjects; patients with ocular hypertension.

Molecules are shown by their SMILES. Read-outs that look alike come from different tables or passages of the source.

For `C[C@]12CC[C@@H](O)C[C@H]1CC[C@@H]1[C@@H]2[C@@H](O)C[C@@]2(C)[C@H]1CC[C@]2(O)C(=O)CO` [Tetrahydrocortisol, tetrahydrocortisol], the “effect on intraocular pressure (IOP)” value in series [1] was “lower intraocular pressure”.

Regarding `C[C@]12CC[C@@H](O)C[C@H]1CC[C@@H]1[C@@H]2[C@@H](O)C[C@@]2(C)[C@H]1CC[C@]2(O)C(=O)CO` [3-α-5-β-Tetrahydrocortisol], the “effect on intraocular pressure” value in series [2] was “lower intraocular pressure”.

With `CC1(C)[C@@H](OC(=O)CCC(=O)O)CC[C@]2(C)[C@H]3C(=O)C=C4[C@@H]5C[C@@](C)(C(=O)O)CC[C@]5(C)CC[C@@]4(C)[C@]3(C)CC[C@@H]12` [Carbenoxolone], the “decrease in intraocular pressure” value in series [3] (normal subjects) and in series [3] (patients with ocular hypertension) was 20% in each case.
